Experimental data from publication PMC8317129 (ACS infectious diseases, 2021).
In brackets after ≈: the same amount, converted by molar mass. Entries after “also recorded” stand apart in the source; their conditions may differ. Values belong to the compound of their own block, whether it stands above or below them.

Experiments:
[1] = tested on: N. gonorrhoeae; assay: broth microdilution MIC assay; type: cell-based, Neisseria gonorrhoeae; settings: for MIC50: concentration inhibiting 50% of the tested strains, panel of 30 clinical isolates
[2] = target: hCA I (Homo sapiens, UniProt P00915); assay: catalytic CO2 hydration assay; type: biochemical; settings: read-out: CO2 Hydration KI hCA I; ± standard error of the mean
[3] = target: T1, NgCA (Neisseria gonorrhoeae, UniProt Q50940); type: biochemical; settings: read-out: CO2 Hydration KI NgCA; ± standard error of the mean
T1 sequence (Q50940 27-252): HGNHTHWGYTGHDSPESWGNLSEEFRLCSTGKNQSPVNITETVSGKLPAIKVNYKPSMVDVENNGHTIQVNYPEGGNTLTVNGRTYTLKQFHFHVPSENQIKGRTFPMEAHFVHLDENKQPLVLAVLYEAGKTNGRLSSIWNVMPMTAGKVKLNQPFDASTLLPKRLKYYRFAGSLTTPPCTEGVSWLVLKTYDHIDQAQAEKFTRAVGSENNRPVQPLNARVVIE

[4] = target: hCA II (Homo sapiens, UniProt P00918); assay: catalytic CO2 hydration assay; type: biochemical; settings: read-out: CO2 Hydration KI hCA II; ± standard error of the mean
[5] = tested on: human colorectal adenocarcinoma (Caco-2) cells; assay: MTS cytotoxicity assay; type: cell-based; settings: doses up to 128 μg/mL, 24 hours at 37 °C, compared to DMSO control
[6] = tested on: human endocervical (End1/E6E7) cells; assay: MTS cytotoxicity assay; type: cell-based; settings: doses up to 128 μg/mL, 24 hours at 37 °C, compared to DMSO control
[7] = 6 months; cited from earlier work
[8] = azithromycin-resistant strain CDC 181, standard conditions in ambient air
[9] = Neisseria gonorrhoeae, three N. gonorrhoeae strains, non-CO2 conditions (Table S5)

Sequence of hCA I (P00915 whole entry): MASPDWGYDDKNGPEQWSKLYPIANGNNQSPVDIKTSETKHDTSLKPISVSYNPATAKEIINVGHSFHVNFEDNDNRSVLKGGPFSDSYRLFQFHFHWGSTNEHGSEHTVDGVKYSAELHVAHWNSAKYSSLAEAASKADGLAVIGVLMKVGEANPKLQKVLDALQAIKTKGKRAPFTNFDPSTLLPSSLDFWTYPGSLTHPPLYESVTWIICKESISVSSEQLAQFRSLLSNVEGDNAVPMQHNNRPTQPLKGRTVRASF

MIC ([1]; three N. gonorrhoeae strains, CO2 conditions (Table S5)): > 64 µg/mL | MIC ([1]; three N. gonorrhoeae strains, non-CO2 conditions (Table S5)): > 64 µg/mL
Structure (SMILES): COc1ncnc(NS(=O)(=O)c2ccc(N)cc2)c1OC [sulfdoxine]

MIC [1, 8]: 16 µg/mL (≈ 61 µM) | Ki [2]: 125 ± 11 nM | Ki [3]: 42.3 ± 1.6 nM | Ki [4]: 41.5 ± 2 nM
Structure (SMILES): NS(=O)(=O)c1nnc(NC(=O)C2CCC2)s1 [analog 11]

MIC [1, 8]: 0.5 µg/mL (≈ 1.64 µM) | MIC50 [1]: 0.5 µg/mL (≈ 1.64 µM) | range of MIC values ([1]; panel of 30 N. gonorrhoeae clinical isolates): 0.06 to 2 µg/mL | MIC ([1]; strain ATCC 700825): 0.5 µg/mL (≈ 1.64 µM) | MIC ([1]; strain CDC 167): 0.5 µg/mL (≈ 1.64 µM) | MIC ([1]; strain CDC 168): 0.5 µg/mL (≈ 1.64 µM) | MIC ([1]; strain CDC 171): 0.5 µg/mL (≈ 1.64 µM) | MIC ([1]; strain CDC 177): 0.5 µg/mL (≈ 1.64 µM) | MIC ([1]; strain CDC 179): 2 µg/mL (≈ 6.57 µM) | MIC ([1]; strain CDC 180): 0.5 µg/mL (≈ 1.64 µM) | MIC ([1]; strain CDC 182): 0.5 µg/mL (≈ 1.64 µM) | MIC ([1]; strain CDC 185): 0.5 µg/mL (≈ 1.64 µM) | MIC ([1]; strain CDC 189): 0.06 µg/mL (≈ 0.197 µM) | MIC ([1]; strain CDC 197): 2 µg/mL (≈ 6.57 µM) | MIC ([1]; strain CDC 202): 2 µg/mL (≈ 6.57 µM) | MIC ([1]; strain CDC 211): 2 µg/mL (≈ 6.57 µM)
Structure (SMILES): NS(=O)(=O)c1nnc(NC(=O)CC2CCCCC2)s1 [analog 20]
toxic effects on cell viability [5]: no toxic effects; also recorded: non-toxic | toxic effects on cell viability [6]: no toxic effects; also recorded: non-toxic

MIC90 ([1]; Neisseria gonorrhoeae): 4 µg/mL (≈ 18 µM) | MIC ([1]; Neisseria gonorrhoeae, ATCC700825, strain ATCC 700825): 0.5 µg/mL (≈ 2.25 µM) | MIC50 ([1]; Neisseria gonorrhoeae): 2 µg/mL (≈ 9 µM) | MIC ([1]; Neisseria gonorrhoeae, strain CDC 165): 4 µg/mL (≈ 18 µM) | MIC ([1]; Neisseria gonorrhoeae, strain CDC 166): 4 µg/mL (≈ 18 µM) | MIC ([1]; Neisseria gonorrhoeae, strain CDC 167): 2 µg/mL (≈ 9 µM) | MIC ([1]; Neisseria gonorrhoeae, strain CDC 168): 4 µg/mL (≈ 18 µM) | MIC ([1]; Neisseria gonorrhoeae, strain CDC 169): 4 µg/mL (≈ 18 µM) | MIC ([1]; Neisseria gonorrhoeae, strain CDC 170): 1 µg/mL (≈ 4.5 µM) | MIC ([1]; Neisseria gonorrhoeae, strain CDC 171): 2 µg/mL (≈ 9 µM) | MIC ([1]; Neisseria gonorrhoeae, strain CDC 173): 1 µg/mL (≈ 4.5 µM) | MIC ([1]; Neisseria gonorrhoeae, strain CDC 175): 2 µg/mL (≈ 9 µM) | MIC ([1]; Neisseria gonorrhoeae, strain CDC 176): 1 µg/mL (≈ 4.5 µM) | MIC ([1]; Neisseria gonorrhoeae, strain CDC 177): 1 µg/mL (≈ 4.5 µM) | MIC ([1]; Neisseria gonorrhoeae, strain CDC 178, incubation in presence of 5% CO2): > 64 µg/mL | MIC ([1]; Neisseria gonorrhoeae, strain CDC 178, standard conditions in ambient air): 2 µg/mL (≈ 9 µM) | MIC ([1]; Neisseria gonorrhoeae, strain CDC 179): 4 µg/mL (≈ 18 µM) | MIC ([1]; Neisseria gonorrhoeae, strain CDC 180): 2 µg/mL (≈ 9 µM) | MIC ([1]; Neisseria gonorrhoeae, strain CDC 181, incubation in presence of 5% CO2): > 64 µg/mL | MIC ([1]; Neisseria gonorrhoeae, strain CDC 182): 4 µg/mL (≈ 18 µM) | MIC ([1]; Neisseria gonorrhoeae, strain CDC 183): 2 µg/mL (≈ 9 µM) | MIC ([1]; Neisseria gonorrhoeae, strain CDC 184): 2 µg/mL (≈ 9 µM) | MIC ([1]; Neisseria gonorrhoeae, strain CDC 185): 4 µg/mL (≈ 18 µM) | MIC ([1]; Neisseria gonorrhoeae, strain CDC 187): 2 µg/mL (≈ 9 µM) | MIC ([1]; Neisseria gonorrhoeae, strain CDC 189): 2 µg/mL (≈ 9 µM) | MIC ([1]; Neisseria gonorrhoeae, strain CDC 190): 2 µg/mL (≈ 9 µM) | MIC ([1]; Neisseria gonorrhoeae, strain CDC 197): 4 µg/mL (≈ 18 µM) | MIC ([1]; Neisseria gonorrhoeae, strain CDC 202): 4 µg/mL (≈ 18 µM) | MIC ([1]; Neisseria gonorrhoeae, strain CDC 211): 1 µg/mL (≈ 4.5 µM) | MIC ([1]; Neisseria gonorrhoeae, strain MS11): 0.5 µg/mL (≈ 2.25 µM) | MIC ([1]; Neisseria gonorrhoeae, strain WHO-K): 1 µg/mL (≈ 4.5 µM) | MIC ([1]; Neisseria gonorrhoeae, strain WHO-W): 2 µg/mL (≈ 9 µM) | MIC ([1]; Neisseria gonorrhoeae, strain WHO-X): 1 µg/mL (≈ 4.5 µM) | MIC [1, 9]: 0.125 to 1 µg/mL (≈ 0.562 to 4.5 µM) | MIC [1, 8]: 4 µg/mL (≈ 18 µM)
Structure (SMILES): CC(=O)Nc1nnc(S(N)(=O)=O)s1 [AZM, acetazolamide]
patients tolerating > 1 g/day [7]: 90% | patients tolerating up to 4 g/day [7]: 45%

MIC [1, 8]: 0.25 µg/mL (≈ 0.8 µM) | MIC50 [1]: 2 µg/mL (≈ 6.4 µM) | MIC ([1]; strain ATCC 700825): 0.5 µg/mL (≈ 1.6 µM) | MIC ([1]; strain CDC 165): 4 µg/mL (≈ 12.8 µM) | MIC ([1]; strain CDC 166): 2 µg/mL (≈ 6.4 µM) | MIC ([1]; strain CDC 167): 4 µg/mL (≈ 12.8 µM) | MIC ([1]; strain CDC 168): 4 µg/mL (≈ 12.8 µM) | MIC ([1]; strain CDC 169): 2 µg/mL (≈ 6.4 µM) | MIC ([1]; strain CDC 170): 0.5 µg/mL (≈ 1.6 µM) | MIC ([1]; strain CDC 171): 2 µg/mL (≈ 6.4 µM) | MIC ([1]; strain CDC 173): 0.5 µg/mL (≈ 1.6 µM) | MIC ([1]; strain CDC 175): 2 µg/mL (≈ 6.4 µM) | MIC ([1]; strain CDC 177): 2 µg/mL (≈ 6.4 µM) | MIC ([1]; strain CDC 178, standard conditions in ambient air): 0.25 µg/mL (≈ 0.8 µM) | MIC ([1]; strain CDC 179): 4 µg/mL (≈ 12.8 µM) | MIC ([1]; strain CDC 180): 2 µg/mL (≈ 6.4 µM) | MIC ([1]; strain CDC 182): 2 µg/mL (≈ 6.4 µM) | MIC ([1]; strain CDC 183): 2 µg/mL (≈ 6.4 µM) | MIC ([1]; strain CDC 184): 2 µg/mL (≈ 6.4 µM) | MIC ([1]; strain CDC 185): 2 µg/mL (≈ 6.4 µM) | MIC ([1]; strain CDC 187): 2 µg/mL (≈ 6.4 µM) | MIC ([1]; strain CDC 197): 4 µg/mL (≈ 12.8 µM) | MIC ([1]; strain CDC 202): 4 µg/mL (≈ 12.8 µM) | MIC ([1]; strain CDC 211): 4 µg/mL (≈ 12.8 µM)
Structure (SMILES): NS(=O)(=O)c1nnc(NC(=O)CCc2ccccc2)s1 [analog 23]
toxic effects on cell viability [5]: non-toxic | toxic effects on cell viability [6]: non-toxic

MIC ([1]; Neisseria gonorrhoeae, three N. gonorrhoeae strains, CO2 conditions (Table S5)): > 64 µg/mL | MIC [1, 9]: > 64 µg/mL
Structure (SMILES): Cc1cc(NS(=O)(=O)c2ccc(N)cc2)no1 [sulfamethoxazole]
